We go through seven compounds from patent publication US6525045B2, “Positive allosteric AMPA receptor modulators” (Boehringer Ingelheim Pharma KG, priority 2000, dated 2003).

The first series has as its system AMPA receptors. The experiment in a line: Electrophysiological measurement of intensification of the agonist-induced current on cells expressing functional AMPA receptors. In kind it is cell-based. Also noted: key: + good; ++ very good activity. To be noted: concentrations between 0.3 μmol and 300 μmol. The method, then: Particular mention should be made of those applications in which the positive modulation of AMPA receptors plays a part. The effect of the compounds according to the invention as AMPA receptor modulators was measured electrophysiologically on cells which express functional AMPA receptors. Investigations were carried out to see whether the test substances have a positive allosteric influence on the agonist-induced current.
The test was carried out at concentrations of between 0.3 μmol and 300 μmol.
As to `CN1Cc2cccc3scc(c23)S1(=O)=O` [Example 1, 4-methyl-4,5-dihydro-1,3-dithia-4-aza-acenaphthylene 3,3-dioxide], the “Effectiveness: Intensification of the agonist-induced current” value (shortened to “Effectiveness: Intensification”) is “++”. On the same count and under the same terms, then “6-chloro-4-methyl-4,5-dihydro-1.3-dithia-4-aza-acenaphthylene 3.3-dioxide [Example 5]”, with “+”; and `CCN1Cc2cccc3scc(c23)S1(=O)=O` [Example 2, 4-ethyl-4.5-dihydro-1,3-dithia-4-aza-acenaphthylene 3,3-dioxide], with “+”.

Turning to `CN1Cc2ccc(Cl)c3scc(c23)S1(=O)=O` [Example 3, 8-chloro-4-methyl-4,5-dihydro-1,3-dithia-4-aza-acenaphthylene 3,3-dioxide], the “Effectiveness: Intensification” value is “+”.

Take `CN1Cc2c(F)ccc3scc(c23)S1(=O)=O` [Example 4, 6-fluoro-4-methyl-4,5-dihydro-1,3-dithia-4-aza-acenaphthylene 3,3-dioxide]: the “Effectiveness: Intensification” value is on record as “++”.

System in the next series: not given
Assay: not given
Conditions: not given
`CN1Cc2c(Br)ccc3scc(c23)S1(=O)=O` [Example 11, 6-bromo-4-methyl-4,5-dihydro-1,3-dithia-4-aza-acenaphthylene-3,3-dioxide]: the melting point (usually the temperature of the solid-liquid transition) is 203 °C. In turn, `CN1Cc2c(C#N)ccc3scc(c23)S1(=O)=O` [Example 16, 4-methyl-3,3-dioxo-4,5-dihydro-3H-1,3-dithia-4-aza-acenaphthylene-6-carbonitrile] yielded a melting point of 238 °C.
